From patent publication US20250368633A1, “AZEPINE FUSED RING COMPOUND AS RIPK1 INHIBITOR AND USE THEREOF” (ARTIVILA BIOPHARMA, priority 2022, published 2025)

Assays:
[1] = molecular target: T1, RIPK1 kinase (Homo sapiens, UniProt Q13546); assay: In vitro RIPK1 kinase activity assay (ADP-Glo), inhibition by compounds at 1 μM; assay type: biochemical; conditions: compound 1 μM; ATP 10 μM; MBP substrate 100 μg/mL; read-out: RIPK1 kinase activity inhibition rate range
T1 construct: purchased Promega VA7593
T1 sequence (Q13546 1-671): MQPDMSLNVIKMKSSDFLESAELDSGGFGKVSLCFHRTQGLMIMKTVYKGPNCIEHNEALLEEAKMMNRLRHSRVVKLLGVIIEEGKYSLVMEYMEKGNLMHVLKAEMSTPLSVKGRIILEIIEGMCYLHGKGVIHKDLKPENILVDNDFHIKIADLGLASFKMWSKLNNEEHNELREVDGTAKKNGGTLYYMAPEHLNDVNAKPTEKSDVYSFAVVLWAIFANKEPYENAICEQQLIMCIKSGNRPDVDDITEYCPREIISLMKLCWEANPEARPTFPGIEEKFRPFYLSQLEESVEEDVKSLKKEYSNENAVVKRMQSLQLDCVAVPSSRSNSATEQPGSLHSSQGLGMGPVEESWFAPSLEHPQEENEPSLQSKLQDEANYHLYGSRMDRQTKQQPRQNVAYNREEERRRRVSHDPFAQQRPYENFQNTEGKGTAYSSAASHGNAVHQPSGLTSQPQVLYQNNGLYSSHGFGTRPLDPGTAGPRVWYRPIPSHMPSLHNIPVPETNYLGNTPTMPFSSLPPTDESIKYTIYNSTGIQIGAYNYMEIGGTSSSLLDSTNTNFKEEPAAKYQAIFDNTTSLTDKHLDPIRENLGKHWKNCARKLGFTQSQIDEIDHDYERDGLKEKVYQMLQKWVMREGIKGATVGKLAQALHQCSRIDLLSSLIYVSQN
Method in brief: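 Compound and RIPK1 were preincubated 15 min at room temperature, then reacted 1 h with 10 μM ATP and 100 μg/mL MBP substrate in kinase buffer D. ADP formed was measured by ADP-Glo luminescence and converted to percent inhibition of kinase activity.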

[2] = test system: U937 cells; assay: EC50 of necroptosis inhibition in U937 cells (TSZ-induced, CellTiter-Glo); assay type: cell-based; conditions: Homo sapiens, U-937; TSZ (hTNF-α, SM-164, Z-VAD-FMK) 20 hours; 10 concentration points; read-out: EC50 intervals of necroptosis inhibition in U937 cells
Method in brief: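 U937 cells pretreated 15 min with compound (10-point, 1:3 series), then necroptosis induced by TSZ (hTNF-α, SM-164, Z-VAD-FMK) for 20 h at 37 °C. Viability measured as ATP by CellTiter-Glo luminescence; inhibition normalised to untreated and TSZ-only wells, EC50 from four-parameter fit.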

SMILES | inhibition at 1 µM [1] [%] | EC50 [2] [nM]
CC(Cc1ccccc1)NC(=O)C(=O)N[C@H]1COc2ccc(C#CCCO)cc2N(C)C1=O (mixture of isomers) [Example 37, N^1-((S)-7-(4-hydroxybut-1-yn-1-yl)-5-methyl-4-oxo-2,3,4,5-tetrahydrobenzo[b][1,4]oxazepin-3-yl)-N^2-(1-phenylpropan-2-yl)oxalamide] | 50 to 74 | 100 to 500
CC(NC(=O)C(=O)N[C@H]1COc2ccc(C#CCCO)cc2N(C)C1=O)c1ccccc1 (mixture of isomers) [Example 41, N^1-((S)-7-(4-hydroxybut-1-yn-1-yl)-5-methyl-4-oxo-2,3,4,5-tetrahydrobenzo[b][1,4]oxazepin-3-yl)-N^2-(1-phenylethyl)oxalamide] | ≥ 75 | < 100
CN1CCC(CC#Cc2ccc3c(c2)N(C)C(=O)[C@@H](NC(=O)C(=O)NCCc2ccccc2)CO3)C1=O (mixture of isomers) [Example 82, N^1-((3S)-5-methyl-7-(3-(1-methyl-2-oxopyrrolidin-3-yl)prop-1-yn-1-yl)-4-oxo-2,3,4,5-tetrahydrobenzo[b][1,4]oxazepin-3-yl)-N^2-phenethyloxalamide] | ≥ 75 | < 100
CN1C(=O)[C@@H](NC(=O)C(=O)NCCc2cccc(F)c2)COc2ccc(C#CCN3CCC(O)C3)cc21 (mixture of isomers) [Example 113, N^1-(3-fluorophenethyl)-N^2-((3S)-7-(3-(3-hydroxypyrrolidin-1-yl)prop-1-yn-1-yl)-5-methyl-4-oxo-2,3,4,5-tetrahydrobenzo[b][1,4]oxazepin-3-yl)oxalamide] | ≥ 75 | < 100
C[C@@H](NC(=O)C(=O)N[C@H]1COc2ccc(C#CCN3CCC(O)C3)cc2N(C)C1=O)c1ccccc1 (mixture of isomers) [Example 126, N^1-((3S)-7-(3-(3-hydroxypyrrolidin-1-yl)prop-1-yn-1-yl)-5-methyl-4-oxo-2,3,4,5-tetrahydrobenzo[b][1,4]oxazepin-3-yl)-N^2-((R)-1-phenylethyl)oxalamide] | ≥ 75 | < 100
CC(CNC(=O)C(=O)N[C@H]1COc2ccc(C#CCCO)cc2N(C)C1=O)c1ccccc1 (mixture of isomers) [Example 154, N^1-((S)-7-(4-hydroxybut-1-yn-1-yl)-5-methyl-4-oxo-2,3,4,5-tetrahydrobenzo[b][1,4]oxazepin-3-yl)-N^2-(2-phenylpropyl)oxalamide] | ≥ 75 | < 100
CN1C(=O)[C@@H](NC(=O)C(=O)NCCc2ccccc2)COc2ccc(C#Cc3cccnc3)cc21 [Example 13, (S)—N^1-(5-methyl-4-oxo-7-(pyridin-3-ylethynyl)-2,3,4,5-tetrahydrobenzo[b][1,4]oxazepin-3-yl)-N^2-phenethyloxalamide] | ≥ 75 | < 100
CN1C(=O)[C@@H](NC(=O)C(=O)NCCc2ccccc2)COc2ccc(C#Cc3ccsc3)cc21 [Example 17, (S)—N^1-(5-methyl-4-oxo-7-(thiophen-3-ylethynyl)-2,3,4,5-tetrahydrobenzo[b][1,4]oxazepin-3-yl)-N^2-phenethyloxalamide] | ≥ 75 | < 100
CN1C(=O)[C@@H](NC(=O)C(=O)NCCc2ccccc2)COc2ccc(C#C[Si](C)(C)C)cc21 [Example 18, (S)—N^1-(5-methyl-4-oxo-7-((trimethylsilyl)ethynyl)-2,3,4,5-tetrahydrobenzo[b][1,4]oxazepin-3-yl)-N^2-phenethyloxalamide] | ≥ 75 | < 100
CC#Cc1ccc2c(c1)N(C)C(=O)[C@@H](NC(=O)C(=O)NCCc1ccccc1)CO2 [Example 19, (S)—N^1-(5-methyl-4-oxo-7-(prop-1-yn-1-yl)-2,3,4,5-tetrahydrobenzo[b][1,4]oxazepin-3-yl)-N^2-phenethyloxalamide] | ≥ 75 | < 100
CN1C(=O)[C@@H](NC(=O)C(=O)NCCc2ccccc2)COc2ccc(C#CC3CCOCC3)cc21 [Example 21, (S)—N^1-(5-methyl-4-oxo-7-((tetrahydro-2H-pyran-4-yl)ethynyl)-2,3,4,5-tetrahydrobenzo[b][1,4]oxazepin-3-yl)-N^2-phenethyloxalamide] | ≥ 75 | < 100
CN1C(=O)[C@@H](NC(=O)C(=O)NCCc2ccccc2)COc2ccc(C#Cc3cnn(C)c3)cc21 [Example 22, (S)—N^1-(5-methyl-7-((1-methyl-1H-pyrazol-4-yl)ethynyl)-4-oxo-2,3,4,5-tetrahydrobenzo[b][1,4]oxazepin-3-yl)-N^2-phenethyloxalamide] | ≥ 75 | < 100
CN1C(=O)[C@@H](NC(=O)C(=O)NCCc2ccccc2)COc2ccc(C#CC3CCCNC3)cc21 (stereo partly drawn) [Example 24, N^1-((3S)-5-methyl-4-oxo-7-(piperidin-3-ylethynyl)-2,3,4,5-tetrahydrobenzo[b][1,4]oxazepin-3-yl)-N^2-phenethyloxalamide] | 50 to 74 | < 100
CN1C(=O)[C@@H](NC(=O)C(=O)NCCc2ccccc2)COc2ccc(C#Cc3cnc4cccnn34)cc21 [Example 25, (S)—N^1-(7-(imidazo[1,2-b]pyridazin-3-ylethynyl)-5-methyl-4-oxo-2,3,4,5-tetrahydrobenzo[b][1,4]oxazepin-3-yl)-N^2-phenethyloxalamide] | ≥ 75 | < 100
CN1C(=O)[C@@H](NC(=O)C(=O)NCCc2ccccc2)COc2ccc(C#CC(C)(C)O)cc21 [Example 29, (S)—N^1-(7-(3-hydroxy-3-methylbut-1-yn-1-yl)-5-methyl-4-oxo-2,3,4,5-tetrahydrobenzo[b][1,4]oxazepin-3-yl)-N^2-phenethyloxalamide] | ≥ 75 | < 100
CN1C(=O)[C@@H](NC(=O)C(=O)NCCc2ccccc2)COc2ccc(C#CCCO)cc21 [Example 31, (S)—N^1-(7-(4-hydroxybut-1-yn-1-yl)-5-methyl-4-oxo-2,3,4,5-tetrahydrobenzo[b][1,4]oxazepin-3-yl)-N^2-phenethyloxalamide] | ≥ 75 | < 100
CN1C(=O)[C@@H](NC(=O)C(=O)NCc2ccccc2)COc2ccc(C#CCCO)cc21 [Example 32, (S)—N^1-benzyl-N^2-(7-(4-hydroxybut-1-yn-1-yl)-5-methyl-4-oxo-2,3,4,5-tetrahydrobenzo[b][1,4]oxazepin-3-yl)oxalamide] | ≥ 75 | < 100
CN1C(=O)[C@@H](NC(=O)C(=O)NCCc2ccccc2F)COc2ccc(C#CCCO)cc21 [Example 33, (S)—N^1-(2-fluorophenethyl)-N^2-(7-(4-hydroxybut-1-yn-1-yl)-5-methyl-4-oxo-2,3,4,5-tetrahydrobenzo[b][1,4]oxazepin-3-yl)oxalamide] | ≥ 75 | < 100
CN1C(=O)[C@@H](NC(=O)C(=O)NCCc2cccc(F)c2)COc2ccc(C#CCCO)cc21 [Example 34, (S)—N^1-(3-fluorophenethyl)-N^2-(7-(4-hydroxybut-1-yn-1-yl)-5-methyl-4-oxo-2,3,4,5-tetrahydrobenzo[b][1,4]oxazepin-3-yl)oxalamide] | 50 to 74 | < 100
CN1C(=O)[C@@H](NC(=O)C(=O)NCCc2ccc(F)cc2)COc2ccc(C#CCCO)cc21 [Example 35, (S)—N^1-(4-fluorophenethyl)-N^2-(7-(4-hydroxybut-1-yn-1-yl)-5-methyl-4-oxo-2,3,4,5-tetrahydrobenzo[b][1,4]oxazepin-3-yl)oxalamide] | 50 to 74 | 100 to 500
CN1C(=O)[C@@H](NC(=O)C(=O)NCCc2cc(F)cc(F)c2)COc2ccc(C#CCCO)cc21 [Example 36, (S)—N^1-(3,5-difluorophenethyl)-N^2-(7-(4-hydroxybut-1-yn-1-yl)-5-methyl-4-oxo-2,3,4,5-tetrahydrobenzo[b][1,4]oxazepin-3-yl)oxalamide] | ≥ 75 | < 100
CN1C(=O)[C@@H](NC(=O)C(=O)NCc2cccc(F)c2)COc2ccc(C#CCCO)cc21 [Example 39, (S)—N^1-(3-fluorobenzyl)-N^2-(7-(4-hydroxybut-1-yn-1-yl)-5-methyl-4-oxo-2,3,4,5-tetrahydrobenzo[b][1,4]oxazepin-3-yl)oxalamide] | ≥ 75 | 100 to 500
CN1C(=O)[C@@H](NC(=O)C(=O)NCc2ccc(F)cc2)COc2ccc(C#CCCO)cc21 [Example 40, (S)—N^1-(4-fluorobenzyl)-N^2-(7-(4-hydroxybut-1-yn-1-yl)-5-methyl-4-oxo-2,3,4,5-tetrahydrobenzo[b][1,4]oxazepin-3-yl)oxalamide] | ≥ 75 | < 100
